Results from ChEMBL document CHEMBL1129180, “Phosphoramidate derivatives of 2,3-didehydro-2,3-dideoxyadenosine [d4A] have markedly improved anti-HIV potency and selectivity” (Bioorg Med Chem Lett, 1996).
Converted amounts (≈) assume the structure as drawn.

Assays:
CCRF-CEM [1] = assay: Compound was evaluated for cytotoxic activity against CEM cells.; type: functional; settings: Homo sapiens
CCRF-CEM [2] = assay: Compound was evaluated for antiviral activity against HIV-2 (ROD) infected CEM cells.; type: functional, cell-based; settings: Homo sapiens
CCRF-CEM [3] = assay: Compound was evaluated for antiviral activity against HIV-1 (IIIB) infected CEM cells.; type: functional, cell-based; settings: Homo sapiens
[4] = Compound was evaluated minimum inhibitory concentration against moloney sarcoma virus (MSV) infected C3H cell cultures.; type: functional; settings: Mus musculus
[5] = Ratio of CC50/EC50 was calculated; type: functional
[6] = Compound was evaluated cytotoxicity against moloney sarcoma virus (MSV) infected C3H cell cultures.; type: functional; settings: Mus musculus

SMILES	CC50 (CCRF-CEM [1]) [µM]	EC50 (CCRF-CEM [2]) [nM]	EC50 (CCRF-CEM [3]) [nM]	MIC [4] [µM]	Selectivity index [5]	CC50 [6] [µM]
Nc1ncnc2c1ncn2[C@H]1C=C[C@@H](CO)O1	91	20000	20000	31 (≈ 7.23 µg/mL)	4.5	> 100
COC(=O)C(C)NP(=O)(OCC1C=CC(n2cnc3c(N)ncnc32)O1)Oc1ccccc1 (configuration not stated)	3.8	18	6	9.4 (≈ 4.46 µg/mL)	633	> 100
CC(NP(=O)(OCC1C=CC(n2cnc3c(N)ncnc32)O1)Oc1ccccc1)C(=O)OCc1ccccc1 (configuration not stated)	1.9	8	8	0.2 (≈ 0.11 µg/mL)	237	> 4
Cc1cn([C@H]2C[C@H](N=[N+]=[N-])[C@@H](CO)O2)c(=O)[nH]c1=O [ZIDOVUDINE]	> 100			0.02 (≈ 0.00534 µg/mL)	> 20000	> 20
